{"source": "ChEMBL document CHEMBL1201862", "about": "“PubChem BioAssay data set” (2004)", "key": {"BJ [1]": {"test_system": "BJ", "experiment": "cytotoxicity toward Ras-transformed BJeLR fibroblasts, dose response, cell-based, alamar blue fluorescence, cherrypicked samples (AID 2631);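 also: confirmatory dose-response assay in RAS-dependent BJ fibroblasts engineered with TERT, LT and ST, with cytotoxicity read by fluorescence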", "format": "functional", "conditions": "Homo sapiens"}, "BJ [2]": {"test_system": "BJ", "experiment": "cells", "format": "functional, cell-based", "conditions": "Homo sapiens"}, "cells": {"experiment": "cells", "format": "functional, cell-based"}, "[3]": {"experiment": "inhibitors of SNCA 5'UTR-driven translation, confirmation, luminescence, H4 neuroglioblastoma cells, dose confirmation (AID 2454);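 also: H4 neuroglioblastoma cells carrying an alpha-synuclein 5'UTR luciferase reporter; potency for inhibition of the luciferase signal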", "format": "functional, cell-based"}, "[4]": {"experiment": "luciferase reporter signal reduction – luminescence, H4-C neuroglioblastoma cells, dose response (AID 2458);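 also: H4 neuroglioblastoma cells stably carrying a luciferase reporter gene fusion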", "format": "functional, cell-based"}, "[5]": {"experiment": "Luminescence Cell-Based Dose Response HTS to Identify Inhibitors of 5'UTR Stem-Loop Driven Prion Protein mRNA Translation in H4 Neuroglioblastoma Cells. [Related pubchem assays: 1827 (Project Summary), 1813 (Primary HTS)]", "format": "functional"}, "[6]": {"experiment": "inhibitors of firefly luciferase expression or activity, dose response, H4 neuroglioma cells, luminescence (AID 1990)", "format": "functional, cell-based"}, "Paired box protein Pax-8": {"biological_target": "Paired box protein Pax-8 (Homo sapiens, UniProt Q06710)", "sequence (Q06710 whole entry)": "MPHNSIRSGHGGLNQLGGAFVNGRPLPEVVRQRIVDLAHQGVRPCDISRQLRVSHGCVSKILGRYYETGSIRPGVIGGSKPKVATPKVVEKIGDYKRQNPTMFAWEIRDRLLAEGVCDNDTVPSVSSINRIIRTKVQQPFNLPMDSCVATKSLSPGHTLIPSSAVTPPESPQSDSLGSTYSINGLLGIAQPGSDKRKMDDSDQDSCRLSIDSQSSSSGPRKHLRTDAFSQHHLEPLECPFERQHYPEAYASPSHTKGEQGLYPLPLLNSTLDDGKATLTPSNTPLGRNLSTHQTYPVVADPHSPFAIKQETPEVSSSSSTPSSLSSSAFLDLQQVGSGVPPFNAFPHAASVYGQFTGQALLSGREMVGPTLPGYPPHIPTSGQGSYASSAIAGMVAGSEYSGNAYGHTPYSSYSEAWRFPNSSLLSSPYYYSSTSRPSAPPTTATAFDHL", "experiment": "inhibitors of PAX8-driven TPO luciferase reporter, dose response, RMG-I cells, cherry-pick (AID 687027);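 also: luciferase reporter driven by Pax8 target thyroperoxidase promoter measured by SteadyGlo luminescence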", "format": "functional, cell-based"}, "[7]": {"experiment": "inhibitors of SNCA 5'UTR-driven reporter translation, confirmation, H4 neuroglioma cells, luminescence (AID 1988)", "format": "functional, cell-based"}, "[8]": {"experiment": "cytotoxicity toward DRD oncogenic fibroblasts, dose response, cell-based, non-viral oncogenic, luminescence (AID 1934)", "format": "functional", "conditions": "Homo sapiens"}, "[9]": {"experiment": "non-specific cell cytotoxicity, dose response, cytotoxicity control for PAX8 inhibitor project, plate reader, dry powder samples (AID 743021)", "format": "functional, cell-based"}, "[10]": {"biological_target": "Type-1 angiotensin II receptor (Homo sapiens, UniProt P30556)", "sequence (P30556 whole entry)": "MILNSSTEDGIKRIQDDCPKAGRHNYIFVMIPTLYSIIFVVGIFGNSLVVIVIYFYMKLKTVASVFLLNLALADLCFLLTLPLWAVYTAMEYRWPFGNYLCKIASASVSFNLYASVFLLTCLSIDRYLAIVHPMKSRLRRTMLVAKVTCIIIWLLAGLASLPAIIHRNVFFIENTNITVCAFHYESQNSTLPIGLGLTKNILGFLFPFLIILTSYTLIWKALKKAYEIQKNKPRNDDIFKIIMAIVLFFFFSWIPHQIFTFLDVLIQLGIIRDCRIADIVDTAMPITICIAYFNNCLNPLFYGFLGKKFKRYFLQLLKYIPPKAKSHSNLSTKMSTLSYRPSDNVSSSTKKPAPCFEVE", "experiment": "AT1 receptor antagonists, dose response, selectivity assay for APJ receptor antagonist project, cell-based, uHTS hits (AID 463214);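 also: antagonist potency against angiotensin II stimulated AT1 response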", "format": "functional"}, "Beta-galactosidase": {"biological_target": "Beta-galactosidase (Escherichia coli, UniProt Q8VNN2)", "sequence (Q8VNN2 whole entry)": "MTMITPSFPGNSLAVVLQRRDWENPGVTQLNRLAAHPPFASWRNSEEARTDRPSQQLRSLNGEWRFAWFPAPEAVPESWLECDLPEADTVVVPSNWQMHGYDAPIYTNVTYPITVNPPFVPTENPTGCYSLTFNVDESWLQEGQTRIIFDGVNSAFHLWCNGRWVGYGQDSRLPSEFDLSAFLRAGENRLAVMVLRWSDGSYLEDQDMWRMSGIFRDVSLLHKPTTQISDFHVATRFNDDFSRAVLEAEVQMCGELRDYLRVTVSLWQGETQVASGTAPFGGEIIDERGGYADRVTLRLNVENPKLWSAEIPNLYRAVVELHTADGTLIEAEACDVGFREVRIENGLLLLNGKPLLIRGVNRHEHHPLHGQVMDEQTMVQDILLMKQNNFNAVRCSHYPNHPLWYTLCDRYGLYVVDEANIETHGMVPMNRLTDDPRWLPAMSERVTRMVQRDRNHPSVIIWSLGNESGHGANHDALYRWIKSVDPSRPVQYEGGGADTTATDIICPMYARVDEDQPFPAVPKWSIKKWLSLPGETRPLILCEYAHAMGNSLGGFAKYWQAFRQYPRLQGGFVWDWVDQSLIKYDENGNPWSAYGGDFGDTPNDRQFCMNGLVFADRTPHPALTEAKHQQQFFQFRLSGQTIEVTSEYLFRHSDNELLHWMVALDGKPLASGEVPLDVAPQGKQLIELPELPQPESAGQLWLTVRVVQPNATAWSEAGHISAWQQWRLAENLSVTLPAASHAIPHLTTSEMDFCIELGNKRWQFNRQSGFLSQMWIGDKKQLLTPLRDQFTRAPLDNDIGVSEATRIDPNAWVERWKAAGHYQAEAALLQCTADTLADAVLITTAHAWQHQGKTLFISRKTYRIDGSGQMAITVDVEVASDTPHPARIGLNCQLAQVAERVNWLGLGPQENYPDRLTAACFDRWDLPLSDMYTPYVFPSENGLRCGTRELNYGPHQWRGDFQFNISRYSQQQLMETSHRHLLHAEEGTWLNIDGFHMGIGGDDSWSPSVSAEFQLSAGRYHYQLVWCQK", "experiment": "PubChem AID 485352", "format": "functional"}, "[11]": {"biological_target": "T1, Endoribonuclease toxin MazF (Escherichia coli K-12, UniProt P0AE70)", "T1 sequence (P0AE70 whole entry)": "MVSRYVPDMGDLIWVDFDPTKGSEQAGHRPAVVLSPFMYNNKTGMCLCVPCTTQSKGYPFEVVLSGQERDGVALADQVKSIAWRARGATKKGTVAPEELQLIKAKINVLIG", "experiment": "MazF endoribonuclease activators, SAR follow-up, biochemical, fluorescence, single-stranded RNA substrate (AID 588603)", "format": "functional"}, "MEF": {"test_system": "MEF", "experiment": "SAR analysis of small molecule cytotoxicity of MazEF TA System activators in embryonic fibroblast (MEF) cells. [Related pubchem assays (depositor defined):AID504720, AID504743]", "format": "functional", "conditions": "Mus musculus"}, "[12]": {"biological_target": "T1, Endoribonuclease toxin MazF", "experiment": "MazF toxin RNase activators, dose response, biochemical, fluorescence, single-stranded RNA substrate, uHTS hits (AID 588481)", "format": "functional"}, "[13]": {"biological_target": "T1, Endoribonuclease toxin MazF", "experiment": "fluorescent RNA oligo signal without MazF, dose response, counter-screen for MazEF activator project, biochemical, fluorescence, single-stranded RNase substrate (AID 588502)", "format": "functional"}, "[14]": {"biological_target": "T1, Endoribonuclease toxin MazF", "experiment": "SAR analysis of small molecule activators of the MazEF TA System via a fluorescence-based single-stranded RNase assay counterscreen. [Related pubchem assays (depositor defined):AID504720, AID504743]", "format": "functional"}, "BJ [15]": {"test_system": "BJ", "experiment": "cytotoxicity toward BJ-TERT-LT-ST fibroblasts, dose response, cell-based, RAS-independent, luminescence (AID 1935);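 also: BJ fibroblasts immortalized with TERT plus LT and ST oncogenes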", "format": "functional", "conditions": "Homo sapiens"}, "BJ [16]": {"test_system": "BJ", "experiment": "cytotoxicity toward BJ-TERT fibroblasts, dose response, cell-based, RAS-independent, luminescence (AID 1933)", "format": "functional", "conditions": "Homo sapiens"}, "Phospholipase D1": {"biological_target": "Phospholipase D1 (Homo sapiens, UniProt Q13393)", "sequence (Q13393 whole entry)": "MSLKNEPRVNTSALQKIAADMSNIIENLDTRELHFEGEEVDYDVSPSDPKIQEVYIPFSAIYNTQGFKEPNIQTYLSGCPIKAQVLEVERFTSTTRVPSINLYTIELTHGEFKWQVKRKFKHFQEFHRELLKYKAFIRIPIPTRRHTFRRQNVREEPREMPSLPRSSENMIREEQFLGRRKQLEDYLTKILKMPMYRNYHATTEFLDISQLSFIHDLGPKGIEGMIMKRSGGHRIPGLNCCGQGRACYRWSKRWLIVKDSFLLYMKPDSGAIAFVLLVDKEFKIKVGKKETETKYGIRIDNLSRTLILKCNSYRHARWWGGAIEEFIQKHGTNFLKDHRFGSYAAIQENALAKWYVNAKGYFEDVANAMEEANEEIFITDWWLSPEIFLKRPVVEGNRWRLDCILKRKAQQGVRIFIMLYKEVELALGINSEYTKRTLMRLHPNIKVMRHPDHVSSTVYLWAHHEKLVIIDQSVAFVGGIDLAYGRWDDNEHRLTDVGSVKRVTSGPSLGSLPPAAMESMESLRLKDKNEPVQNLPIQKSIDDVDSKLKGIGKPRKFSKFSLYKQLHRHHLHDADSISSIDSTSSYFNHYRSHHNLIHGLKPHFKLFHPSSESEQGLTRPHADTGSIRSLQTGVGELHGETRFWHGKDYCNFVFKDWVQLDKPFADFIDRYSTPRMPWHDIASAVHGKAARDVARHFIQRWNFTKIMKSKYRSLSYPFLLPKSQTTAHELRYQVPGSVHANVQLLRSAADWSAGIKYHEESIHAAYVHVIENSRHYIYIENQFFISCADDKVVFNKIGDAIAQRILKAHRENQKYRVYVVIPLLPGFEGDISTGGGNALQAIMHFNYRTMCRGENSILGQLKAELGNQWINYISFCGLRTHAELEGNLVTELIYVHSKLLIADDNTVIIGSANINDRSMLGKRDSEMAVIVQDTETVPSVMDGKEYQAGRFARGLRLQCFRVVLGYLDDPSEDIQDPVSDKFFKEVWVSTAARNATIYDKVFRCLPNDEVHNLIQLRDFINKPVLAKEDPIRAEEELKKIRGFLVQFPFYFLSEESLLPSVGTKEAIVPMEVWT", "experiment": "PLD1 inhibitor potency in cells, dose response (AID 602151);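 also: cellular PLD1 assay in Calu-1 cells stimulated with PMA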", "format": "functional"}, "Phospholipase D2": {"biological_target": "Phospholipase D2 (Homo sapiens, UniProt O14939)", "sequence (O14939 whole entry)": "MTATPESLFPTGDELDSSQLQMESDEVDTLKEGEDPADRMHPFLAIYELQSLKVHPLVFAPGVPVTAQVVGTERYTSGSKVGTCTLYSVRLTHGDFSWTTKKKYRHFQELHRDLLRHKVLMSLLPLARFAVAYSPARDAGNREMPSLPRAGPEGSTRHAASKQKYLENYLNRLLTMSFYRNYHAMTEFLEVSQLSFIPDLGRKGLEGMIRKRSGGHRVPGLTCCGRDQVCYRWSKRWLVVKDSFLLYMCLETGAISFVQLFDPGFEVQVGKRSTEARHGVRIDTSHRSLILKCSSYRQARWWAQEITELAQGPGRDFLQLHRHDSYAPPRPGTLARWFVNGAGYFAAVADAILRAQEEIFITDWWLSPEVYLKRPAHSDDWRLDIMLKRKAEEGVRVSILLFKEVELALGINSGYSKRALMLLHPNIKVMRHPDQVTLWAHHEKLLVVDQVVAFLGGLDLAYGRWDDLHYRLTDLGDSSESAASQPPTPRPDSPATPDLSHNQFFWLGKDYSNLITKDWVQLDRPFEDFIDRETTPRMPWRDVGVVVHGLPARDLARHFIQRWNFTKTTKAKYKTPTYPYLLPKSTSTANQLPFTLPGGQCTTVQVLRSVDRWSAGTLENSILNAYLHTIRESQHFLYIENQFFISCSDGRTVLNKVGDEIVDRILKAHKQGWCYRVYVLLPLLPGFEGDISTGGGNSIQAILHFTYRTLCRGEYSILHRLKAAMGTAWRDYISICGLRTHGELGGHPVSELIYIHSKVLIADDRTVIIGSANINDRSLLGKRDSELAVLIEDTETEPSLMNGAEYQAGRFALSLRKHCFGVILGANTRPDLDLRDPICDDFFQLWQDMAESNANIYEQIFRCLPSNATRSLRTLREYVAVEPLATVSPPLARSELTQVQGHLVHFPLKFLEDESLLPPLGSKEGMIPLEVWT", "experiment": "PLD2 inhibitor potency in cells, dose response (AID 602147);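 also: cellular assay in HEK293 cells overexpressing GFP-tagged PLD2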", "format": "functional"}, "[17]": {"experiment": "microbe, parasite or virus in culture", "format": "functional", "conditions": "Mycobacterium tuberculosis"}}, "note": "Activity calls are given as the source filed them. Rule as the data show it, for most assays here: actives have a measured EC50 and inactives only a lower limit."}
{"smiles": "CCOc1ccc(C2=Nn3c(nnc3-c3ccccc3OC)SC2)cc1", "values": [{"measurement": "EC50", "setting": "BJ [1]", "value": "< 0.104 µM (active)"}, {"measurement": "EC50", "setting": "BJ [2]", "value": "< 0.12 µM (active)"}, {"measurement": "EC50", "setting": "cells", "value": "0.046 µM (active)"}, {"measurement": "EC50", "setting": "[3]", "value": "0.04 µM (active)"}, {"measurement": "EC50", "setting": "[4]", "value": "0.034 µM (active)"}, {"measurement": "EC50", "setting": "[5]", "value": "< 0.1 µM (active)"}, {"measurement": "EC50", "setting": "[6]", "value": "< 0.1 µM (active)"}, {"measurement": "AC50", "setting": "Paired box protein Pax-8", "value": "0.317 µM (active)"}, {"measurement": "EC50", "setting": "[7]", "value": "< 0.1 µM (active)"}, {"measurement": "EC50", "setting": "[8]", "value": "< 0.12 µM (active)"}, {"measurement": "AC50", "setting": "[9]", "value": "63 µM (active)"}]}
{"smiles": "O=C1NC[C@H](c2ccccc2)OC(=O)[C@@H](Cc2ccc(F)cc2)CC/C=C/C[C@@H]1CC(=O)N(CCO)Cc1ccccc1", "values": [{"measurement": "IC50", "setting": "[10]", "value": "33.7 µM (not active)"}, {"measurement": "EC50", "setting": "Beta-galactosidase", "value": "19.5 µM (active)"}]}
{"smiles": "Cc1c(C(=O)Oc2cc(N)n(S(C)(=O)=O)n2)cccc1[N+](=O)[O-]", "values": [{"measurement": "EC50", "setting": "[11]", "value": "6.63 µM (active)"}, {"measurement": "CC50", "setting": "MEF", "value": "> 99 µM (inactive)"}, {"measurement": "EC50", "setting": "[12]", "value": "5.59 µM (active)"}, {"measurement": "EC50", "setting": "[13]", "value": "> 99 µM (inactive)"}, {"measurement": "EC50", "setting": "[14]", "value": "> 99 µM (inactive)"}]}
{"smiles": "CC(=O)c1ccc(NC(=O)N2CCc3ccccc3C2)cc1", "values": [{"measurement": "EC50", "setting": "BJ [1]", "value": "6.04 µM (active)"}, {"measurement": "EC50", "setting": "BJ [2]", "value": "10.5 µM (active)"}, {"measurement": "EC50", "setting": "BJ [15]", "value": "> 150 µM (not active)"}, {"measurement": "EC50", "setting": "BJ [16]", "value": "> 150 µM (not active)"}, {"measurement": "EC50", "setting": "[8]", "value": "> 150 µM (not active)"}]}
{"smiles": "Cc1ccc(C(=O)N[C@@H](C)CN2CCC(n3c(=O)[nH]c4cc(Br)ccc43)CC2)cc1", "values": [{"measurement": "IC50", "setting": "Phospholipase D1", "value": "0.007 µM (active)"}, {"measurement": "IC50", "setting": "Phospholipase D2", "value": "2.8 µM (active)"}]}
{"smiles": "C[C@@H](CN1CC=C(n2c(=O)[nH]c3ccccc32)CC1)NC(=O)[C@H]1C[C@@H]1c1ccccc1", "values": [{"measurement": "IC50", "setting": "Phospholipase D1", "value": "0.48 µM (active)"}, {"measurement": "IC50", "setting": "Phospholipase D2", "value": "20 µM (active)"}]}
{"smiles": "CC1CC2=C(CC1/C=N/NC(N)=S)C(C)(C)CCC2", "note": "(stereo not given)", "values": [{"measurement": "IC50", "setting": "[10]", "value": "22.6 µM (not active)"}, {"measurement": "EC50", "setting": "Beta-galactosidase", "value": "> 40 µM (inactive)"}, {"measurement": "CC50", "setting": "[17]", "value": "20.9 µM (active)"}]}
